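In this assay, cells in 96-well plates receive the compound at five concentrations for 48 hours. Endpoints are linearly interpolated between the surrounding concentrations. GI50 marks 50% less growth. The concentration for full growth arrest is given as TGI.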
Tests used:
Assay in all cases: DTP human tumour cell line panel, 48 h
786-0 renal = test system: 786-0 renal
A498 renal = test system: A498 renal
A549 NSCLC = test system: A549 NSCLC
ACHN renal = test system: ACHN renal
BT-549 breast = test system: BT-549 breast
CAKI-1 renal = test system: CAKI-1 renal
CCRF-CEM leukemia = test system: CCRF-CEM leukemia
COLO 205 colon = test system: COLO 205 colon
DU-145 prostate = test system: DU-145 prostate
EKVX NSCLC = test system: EKVX NSCLC
HCC-2998 colon = test system: HCC-2998 colon
HCT-116 colon = test system: HCT-116 colon
HCT-15 colon = test system: HCT-15 colon
HL-60(TB) leukemia = test system: HL-60(TB) leukemia
HOP-62 NSCLC = test system: HOP-62 NSCLC
HOP-92 NSCLC = test system: HOP-92 NSCLC
HS 578T breast = test system: HS 578T breast
HT29 colon = test system: HT29 colon
IGROV1 ovarian = test system: IGROV1 ovarian
K-562 leukemia = test system: K-562 leukemia
KM12 colon = test system: KM12 colon
LOX IMVI melanoma = test system: LOX IMVI melanoma
M14 melanoma = test system: M14 melanoma
MALME-3M melanoma = test system: MALME-3M melanoma
MCF7 breast = test system: MCF7 breast
MDA-MB-231 breast = test system: MDA-MB-231 breast
MDA-MB-435 = test system: MDA-MB-435
MOLT-4 leukemia = test system: MOLT-4 leukemia
NCI-H226 lung = test system: NCI-H226 lung

Compound `CCN(CC)CC(O)CNc1c2ccc(Cl)cc2nc2ccc(OC)cc12` (stereo not drawn) has a GI50 (786-0 renal) of 549 nM, a TGI (786-0 renal) of 2050 nM and a GI50 (A498 renal) of 1430 nM. For the same compound, the TGI (A498 renal) was 2890 nM, the GI50 (A549 NSCLC) was 472 nM and the TGI (A549 NSCLC) was 2030 nM. It also gave a GI50 (ACHN renal) of 935 nM, a TGI (ACHN renal) of 3790 nM and a GI50 (BT-549 breast) of 1630 nM. The TGI (BT-549 breast) was 3050 nM, the GI50 (CAKI-1 renal) was 656 nM and the TGI (CAKI-1 renal) was 2330 nM. It also gave a GI50 (CCRF-CEM leukemia) of 673 nM, a TGI (CCRF-CEM leukemia) of 6880 nM and a GI50 (COLO 205 colon) of 528 nM. It also gave a TGI (COLO 205 colon) of 1680 nM, a GI50 (DU-145 prostate) of 710 nM and a TGI (DU-145 prostate) of 2210 nM. It also gave a GI50 (EKVX NSCLC) of 407 nM, a TGI (EKVX NSCLC) of 2080 nM and a GI50 (HCC-2998 colon) of 549 nM. It also gave a TGI (HCC-2998 colon) of 1770 nM, a GI50 (HCT-116 colon) of 367 nM and a TGI (HCT-116 colon) of 1410 nM. For the same compound, the GI50 (HCT-15 colon) was 679 nM, the TGI (HCT-15 colon) was 6430 nM and the GI50 (HL-60(TB) leukemia) was 960 nM. It also gave a TGI (HL-60(TB) leukemia) of 3320 nM, a GI50 (HOP-62 NSCLC) of 1010 nM and a TGI (HOP-62 NSCLC) of 2730 nM. The GI50 (HOP-92 NSCLC) was 1300 nM, the TGI (HOP-92 NSCLC) was 3840 nM and the GI50 (HS 578T breast) was 1240 nM. For the same compound, the TGI (HS 578T breast) was 3470 nM, the GI50 (HT29 colon) was 356 nM and the TGI (HT29 colon) was 1480 nM. The GI50 (IGROV1 ovarian) was 716 nM, the TGI (IGROV1 ovarian) was 3120 nM and the GI50 (K-562 leukemia) was 312 nM. The TGI (K-562 leukemia) was 979 nM, the GI50 (KM12 colon) was 512 nM and the TGI (KM12 colon) was 1860 nM. For the same compound, the GI50 (LOX IMVI melanoma) was 589 nM, the TGI (LOX IMVI melanoma) was 1790 nM and the GI50 (M14 melanoma) was 1350 nM. It also gave a TGI (M14 melanoma) of 2660 nM, a GI50 (MALME-3M melanoma) of 1630 nM and a TGI (MALME-3M melanoma) of 3350 nM. It also gave a GI50 (MCF7 breast) of 621 nM, a TGI (MCF7 breast) of 4400 nM and a GI50 (MDA-MB-231 breast) of 972 nM. For the same compound, the TGI (MDA-MB-231 breast) was 3060 nM, the GI50 (MDA-MB-435) was 923 nM and the TGI (MDA-MB-435) was 2250 nM. The GI50 (MOLT-4 leukemia) was 369 nM, the TGI (MOLT-4 leukemia) was 1580 nM and the GI50 (NCI-H226 lung) was 886 nM. It also gave a TGI (NCI-H226 lung) of 3010 nM.

Reference: PubChem BioAssay (NCI)
